Data taken from ChEMBL document CHEMBL1159083, “An octahydro-cyclopenta[c]pyrrole series of inhibitors of the type 1 glycine transporter” (Bioorg Med Chem Lett, 2010).

Assay: Half life in human microsomes
Format: ADME, Microsome

Compound | half-life [min]
Cn1cnc(C(=O)N(Cc2ccc(F)c(C(F)(F)F)c2)[C@H]2C[C@H]3CNC[C@H]3C2)c1 | > 120
Cn1cnc(C(=O)N(Cc2cccc(OC(F)(F)F)c2)[C@H]2C[C@H]3CNC[C@H]3C2)c1 | 50
Cn1cnc(C(=O)N(Cc2cccc(OC(F)(F)F)c2)[C@@H]2C[C@@H]3CN(CCC(F)(F)F)C[C@@H]3C2)c1 | < 3.2
Cn1cnc(C(=O)N(Cc2ccc(F)c(OC3CCCC3)c2)[C@H]2C[C@H]3CNC[C@H]3C2)c1 | > 111
CC(C)Oc1cccc(CN(C(=O)c2cn(C)cn2)[C@H]2C[C@H]3CNC[C@H]3C2)c1 | > 120
CCN1C[C@H]2C[C@@H](N(Cc3ccc(F)c(C(F)(F)F)c3)C(=O)c3cn(C)cn3)C[C@H]2C1 | > 120
CN1C[C@H]2C[C@@H](N(Cc3ccc(F)c(OC4CCCC4)c3)C(=O)c3cn(C)cn3)C[C@H]2C1 | 78.1
Cn1cnc(C(=O)N(Cc2cccc(OC3CCCC3)c2)[C@H]2C[C@H]3CNC[C@H]3C2)c1 | > 120
CN1C[C@H]2C[C@@H](N(Cc3ccc(F)c(C(F)(F)F)c3)C(=O)c3cn(C)cn3)C[C@H]2C1 | > 120
COc1ccc(CN(C(=O)c2cn(C)cn2)[C@H]2C[C@H]3CNC[C@H]3C2)cc1OC1CCCC1 | > 120
Cn1cnc(C(=O)N(Cc2ccc(F)c(C(F)(F)F)c2)[C@@H]2C[C@H]3CNC[C@H]3C2)c1 | > 120

Second part, the compound after the results:

half-life [min] | Compound
8.19 | Cn1cnc(C(=O)N(Cc2cccc(OC(F)(F)F)c2)[C@@H]2C[C@@H]3CN(CC(O)c4ccccc4)C[C@@H]3C2)c1 (stereo partly specified)
30.5 | CN1C[C@H]2C[C@@H](N(Cc3cccc(OC(F)(F)F)c3)C(=O)c3cn(C)cn3)C[C@H]2C1
10 | CCN1C[C@H]2C[C@@H](N(Cc3cccc(OC(F)(F)F)c3)C(=O)c3cn(C)cn3)C[C@H]2C1
< 3.2 | CC(F)CN1C[C@H]2C[C@@H](N(Cc3cccc(OC(F)(F)F)c3)C(=O)c3cn(C)cn3)C[C@H]2C1 (stereo partly specified)
7.06 | Cn1cnc(C(=O)N(Cc2cccc(OC(F)(F)F)c2)[C@@H]2C[C@@H]3CN(CC(C)(C)O)C[C@@H]3C2)c1
